We go through 3 molecules from paper PMC8065691, “Polymerizable Matrix Metalloproteinases’ Inhibitors with Potential Application for Dental Restorations” (Biomedicines, 2021).

One data set concerns NIH/3T3 fibroblast cells. The experiment in a line: Cytotoxicity study using MTT assay, NIH/3T3. Format: cell-based, mouse. Conditions: NIH/3T3 cells, 50 and 100 µM. Here is the method:
(§1) Two cell lines, fibroblastic cells NIH/3T3 from mouse embryo (93061524) obtained from Health Protection Agency Culture Collections and supplied by Sigma and MG-63 osteoblast-like cells from human osteosarcoma (ATCC® CRL-1427^TM) were used for cytotoxicity studies. Defrosting and handling of cell lines was carried out according to supplier information.
(§2) The NIH/3T3 cells were grown in Dulbecco’s Modified Eagle Medium (DMEM, Sigma) supplemented with 10% calf bovine serum (Sigma) and 1% Penicillin-Streptomycin solution: 10,000 U/mL penicillin, 10 mg/mL streptomycin, Sigma) and 2.5 mg/L amphotericin B (fungizone, Sigma). MG-63 cells were grown in Eagle’s Minimum Essential Medium (EMEM, Sigma) supplemented with 10% fetal bovine serum and 1% of antibiotics and 2.5 mg/L antimycotics solutions.
(§3) Extracts from each compound A, B or C were prepared by spreading 20 μL of a solution with 20 μM, 50 μM or 100 μM of each compound in a glass petri dish, allowed to dry, and incubated at 37 °C under humidified 5% CO2 for 24 h with 10 mL of the corresponding growth medium according to ISO 10993–12: 2012.
(§4) The cytotoxicity assay was performed as follows: 1 × 10^4 cells per well, from passages 8 to 12, were seeded in 96-well plates (eight replicates) and incubated at 37 °C under humidified 5% CO2 for 24 h. After proliferation, the cell medium was replaced by 200 μL of each extract and incubated under the same conditions for 24 h. As positive control cells were grown in their medium containing 7.5% DMSO (Sigma) and as negative control cells proliferated in medium without any toxic corresponding to 100% cell viability. MTT assays were performed as previously described. Briefly, extracts or medium were removed, an MTT solution (0.5 mg/mL prepared in serum-free medium, Sigma) was added to each well and cells were incubated for additional 3 h. After that, a solution containing 0.1% IGEPAL (Merck), 4 mM HCl (Sigma) in isopropanol (Sigma) was used to dissolve formazan. Plates were incubated with agitation for one hour and absorbance was read at 595 nm with a microplate reader (Bio-Rad®, Hercules, California, USA).

A short description of data set [1]: Cytotoxicity study using MTT assay, NIH/3T3. Type of data set: cell-based, mouse. Conditions: mouse, NIH/3T3 fibroblast cells, extract, 24 h, MTT, mean, read-out: Cell Viability (%) NIH/3T3 M; for viability at 24 h, 20 µM (stock): NIH/3T3, inhibitor concentration 20 μM; for viability at 24 h, 50 µM (stock): NIH/3T3, inhibitor concentration 50 µM; for viability at 24 h, 100 µM (stock): NIH/3T3, inhibitor concentration 100 µM. Here is the method: as §1, §2, §3, §4

Data set [2] is described as follows: Cytotoxicity study using MTT assay, MG-63. The settings on record: human, MG-63 osteoblast-like cells, extract, mean, read-out: Cell Viability (%) MG-63 M; for viability at 24 h, 20 µM (stock): MG-63, inhibitor concentration 20 μM; for viability at 24 h, 50 µM (stock): MG-63, inhibitor concentration 50 µM; for viability at 24 h, 100 µM (stock): MG-63, inhibitor concentration 100 µM. Type of data set: cell-based. As to the method:
as §1, §2, §3, §4
(Formazan colour is commonly taken as a measure of viable cells.)

In the next data set the test system is MMPs. The experiment in a line: Preliminary biochemical tests (not shown). The settings on record: data not shown, most MMPs. The source says:
However, there were additional interactions between the compounds and the enzyme depending on the enzyme class (collagenases and gelatinases) (See Appendix B, Appendix C, Appendix D and Appendix E).

As to `C=C(C)C(=O)Oc1ccc(-c2ccc(C#N)cc2)cc1` [Compound A, 4′-cyano-[1,1′-bihenyl]-4-yl methacrylate], in the data set on NIH/3T3 fibroblast cells, the “toxicity according to ISO 10993–5: 2009 (viable cells decreased more than 30%)” value is “toxic”. In data set [1], the viability at 24 h, 20 µM (stock) came to 85.1%; the viability at 24 h, 50 µM (stock) came out at 54.2%; the viability at 24 h, 100 µM (stock) amounted to 45.5%. In addition, in data set [2], the viability at 24 h, 20 µM (stock) is 82.6%; the viability at 24 h, 50 µM (stock) was 73.6%; the viability at 24 h, 100 µM (stock) was determined as 73%. For the same molecule, in the data set with MMPs, the MMP activity reduction result is reported as “encouraging indications on activity reduction”.
As for `C=C(C)C(=O)OCCCCCOc1ccc(-c2ccc(C#N)cc2)cc1` [Compound B, 5-((4′-cyano-[1,1′-biphenyl]-4-yl)oxy)pentyl methacrylate], the “toxicity according to ISO 10993–5: 2009 (viable cells decreased more than 30%)” value with NIH/3T3 fibroblast cells is “toxic”. Also, in data set [1], the viability at 24 h, 20 µM (stock) was 78.6%; the viability at 24 h, 50 µM (stock) was determined as 50.5%; the viability at 24 h, 100 µM (stock) is 40.5%. In data set [2], the viability at 24 h, 20 µM (stock) was found to be 78.1%; the viability at 24 h, 50 µM (stock) was found to be 70.3%; the viability at 24 h, 100 µM (stock) was 65.9%. Also, in the data set on MMPs, the MMP activity reduction result is listed as “encouraging indications on activity reduction”.
As for `C=C(C)C(=O)Nc1ccc(Oc2ccc(NC(=O)C(=C)C)cc2)cc1` [Compound C, N,N′-(oxybis(4,1-phenylene))bis(2-methylacrylamide)], in the data set with NIH/3T3 fibroblast cells, the “toxicity according to ISO 10993–5: 2009 (viable cells decreased more than 30%)” value was “toxic”. In data set [1], the viability at 24 h, 20 µM (stock) is 83.7%; the viability at 24 h, 50 µM (stock) amounted to 46.4%; the viability at 24 h, 100 µM (stock) worked out at 42.4%. Moreover, in data set [2], the viability at 24 h, 20 µM (stock) worked out at 85%; the viability at 24 h, 50 µM (stock) amounted to 65.8%; the viability at 24 h, 100 µM (stock) was 69.2%. The MMP activity reduction entry with MMPs is “encouraging indications on activity reduction”.
